Results taken from patent US20080261911A1, “Uses of diphenyl/diphenylamine carboxylic acids” (priority 2006, published 2008).

Assays:
VEGF mRNA = VEGF mRNA levels in Panc-1 cells, semi-quantitative RT-PCR; format: cell-based
[1] = test system: Sp1, Sp3 and Sp4 proteins; assay: Western blot of Sp1, Sp3 and Sp4 protein expression in L3.6pl cells; format: cell-based, human; conditions: 50 μM, 48 hr
Procedure: Cells were treated with 50 μM non-steroidal anti-inflammatory drugs/COX-1/2 inhibitors for 48 hr and whole cell lysates were analyzed by Western blot analysis. […] Protein band intensities were standardized based on β-tubulin protein as a loading control.
Cells are washed once with phosphate buffered saline PBS and collected by scraping in 200 μL of lysis buffer [50 mM HEPES, 0.5M sodium chloride, 1.5 mM magnesium chloride, 1 mM EGTA, 10% (v/v) glycerol, 1% Triton X-100, 5 μL/ml of Protease Inhibitor Cocktail (Sigma)]. The lysates from the cells are incubated on ice for 1 hr with intermittent vortexing followed by centrifugation at 40,000 g for 10 min at 4° C. Equal amounts of protein (60 μg) from each treatment group are diluted with loading buffer, boiled and loaded onto 10 and 12.5% SDS-polyacrylamide gel. […] Samples are electrophoresed, transferred to membranes, and proteins detected by incubation with polyclonal primary antibodies Sp1, Sp3, Sp4, HDAC, VEGF (a-20), c-Met, surviving, VEGF, cleaved PARP, and β-tubulin (H-235) followed by blotting with appropriate horseradish peroxidase-conjugated secondary antibody as previously described (Abdelrahim et al, 2004). After autoradiography, band intensities are determined by a scanning laser densitometer (Sharp Electronics Corporation, Mahwah, N.J.) using ZERO-D SCANALYTICS software (Scanalytics Corporation, Billerica, Mass.).

VEGFR1 mRNA = VEGFR1 mRNA in Panc-1 cells, semi-quantitative RT-PCR; format: cell-based; conditions: 50 μM, 24 h
Procedure: FIGS. 17A-17D show effects of tolfenamic acid on the VEGFR1 promoter and mRNA expression. Transfection with pVEGFR1-A (FIG. 17A), pVEGFR1-B (FIG. 17B), and pVEGFR1-C (FIG. 17C). Panc-1 cells were transfected with pVEGFR1 constructs, treated with DMSO, 50 μM ampiroxicam, or 50 μM tolfenamic acid, and luciferase activity was determined as described in Materials and Methods. […] Results are shown for a single experiment and similar data was obtained in replicate experiments.

[2] = test system: SEG-1 esophageal cancer cells; assay: Western blot of Sp and Sp-dependent proteins in SEG-1 esophageal cancer cells; format: cell-based; conditions: SEG-1 cells, 25-100 μM
Procedure: Cells are washed once with phosphate buffered saline PBS and collected by scraping in 200 μL of lysis buffer [50 mM HEPES, 0.5M sodium chloride, 1.5 mM magnesium chloride, 1 mM EGTA, 10% (v/v) glycerol, 1% Triton X-100, 5 μL/ml of Protease Inhibitor Cocktail (Sigma)]. The lysates from the cells are incubated on ice for 1 hr with intermittent vortexing followed by centrifugation at 40,000 g for 10 min at 4° C. Equal amounts of protein (60 μg) from each treatment group are diluted with loading buffer, boiled and loaded onto 10 and 12.5% SDS-polyacrylamide gel. For vascular endothelial growth factor immunoblots, 100 μg of protein are used. Samples are electrophoresed, transferred to membranes, and proteins detected by incubation with polyclonal primary antibodies Sp1, Sp3, Sp4, HDAC, VEGF (a-20), c-Met, surviving, VEGF, cleaved PARP, and β-tubulin (H-235) followed by blotting with appropriate horseradish peroxidase-conjugated secondary antibody as previously described (Abdelrahim et al, 2004). After autoradiography, band intensities are determined by a scanning laser densitometer (Sharp Electronics Corporation, Mahwah, N.J.) using ZERO-D SCANALYTICS software (Scanalytics Corporation, Billerica, Mass.).

[3] = test system: VEGF promoter constructs pVEGF1 and pVEGF2; assay: VEGF promoter (pVEGF1/pVEGF2) luciferase transactivation in L3.6pl cells; format: cell-based, human; conditions: 50 μM
Procedure: Cells were transfected with pVEGF1 or pVEGF2 treated with DMSO, 50 μM ampiroxicam, tolfenamic acid, or diclofenac sodium, and luciferase activity determined. […] Panc-1 cells were transfected with pVEGF2, treated with 20, 40, 60 or 80 μM ampiroxicam or tolfenamic acid, and luciferase determined. […] Cells are cultured in 6-well plates in 2 ml of DME/F12 medium supplemented with 5% fetal bovine serum.

With `Cc1c(Cl)cccc1Nc1ccccc1C(=O)O` [tolfenamic acid] the “decrease of vascular endothelial growth factor mRNA levels” value (VEGF mRNA; 50 μM, 24 hours, compared to DMSO) was “greater than 60%”, the “VEGF mRNA stability” value (VEGF mRNA; actinomycin D alone or with 50 μM tolfenamic acid, up to 4.5 hr) was “decreased at similar rates” and the “decrease of Sp1, Sp3 and Sp4 proteins” value [1] was “greater than 65%”. For the same compound, the “VEGFR1 mRNA levels” value (VEGFR1 mRNA) was “decreased VEGFR1 mRNA levels”, the “apoptosis as shown by PARP cleavage” value [2] was “induced apoptosis” and the “expression of Sp-dependent proteins VEGF, survivin, and c-Met” value [2] was “decreased expression of Sp-dependent proteins vascular endothelial growth factor (VEGF), survivin, and c-Met”. For the same compound, the “protein expression of Sp1, Sp3, and Sp4” value [2] was “decreased protein expression of Sp1, Sp3, and Sp4” and the “luciferase activity, pVEGF1 and pVEGF2 constructs” value [3] was “results similar to those observed in Panc-1 cells”.
